Assays:
[1] = system: Polyposis nasi et sinuum; test: Cell vitality of polyp single-cell suspensions in culture; type: cell-based, Mensch; conditions: 1mM Cineol versus standard medium, culture over 288 Stunden; effect after 96 bis 144 Stunden; polyps of 5 patients
Description: Proben von Nasenpolypen wurden in PBS-Puffer gewaschen und in sterilem serumfreiem "High Glucose Dulbecco's Modified Eagle Medium" (PAA, Pasching, Österreich) mit einer Skalpellklinge vorsichtig in kleine Stücke zerkleinert, wobei das Medium 1 % L-Glutamin, 1 % Natriumpyruvat, 1 % nichtessentielle Aminosäuren, 2 % Amphotericin B, 2 % Streptomycin und 2 % Penicillin, ergänzt mit 10 % FCS, und 25 mM HEPES Puffer, enthielt (alle von PAA, Pasching, Österreich). Danach wurden die Gewebeproben durch eine enzymatische Behandlung und Waschschritte mit Collagenase Typ II (31,5 mg/ml, GIBCO, Eggenstein, Deutschland) und Hyaluronidase (3,99 mg/ml, Sigma, München, Deutschland) in einem ersten Schritt und mit Dispase (33,4 mg/ml, Sigma, München, Deutschland) in einem zweiten Schritt jeweils unter Schütteln bei 37 °C für 120 Minuten enzymatisch verdaut. Zwischen den enzymatischen Behandlungen und den Waschschritten wurden die Zellen zentrifugiert. Die resultierenden Zellsuspensionen wurden in PBS (PAA, Pasching, Österreich), enthaltend 2 % BSA, gewaschen und jeweils durch einen 70 µm und einen 60 µm Nylon-Zellfilter (Falcon, Becton Dickinson Labware, Heidelberg, Deutschland) filtriert.
Erste Vorversuche zum Einfluss von Cineol auf die Progression von Polyposis nasi et sinuum wurden durchgeführt. […]

[2] = system: permanente Zelllinien maligner Kopf-Hals-Tumoren; test: Cell migration test (xCELLigence); type: cell-based; conditions: 2 mM
Description: Um den Einfluss von Cineol auf die zelluläre Migrations-Aktivität zu untersuchen, wurden Migrations-CIM-Platten 16 (Roche, Mannheim, Deutschland), bei welchen es sich um ein durch eine poröse Membran getrenntes 2-Kammer-System handelt, entsprechend der Bedienungsanleitung des Herstellers verwendet (Roche Diagnostics). Die Zellen wandern dabei von der oberen Kammer durch die Membran und haften an den elektronischen Sensoren an der Unterseite der Membran, so dass ein Anstieg der Impedanz resultiert. Die Veränderungen werden automatisch und kontinuierlich durch das RTCA-DP-Instrument aufgezeichnet, und die Zellmigrations-Aktivität kann durch das Zell-Index-Profil überwacht werden. Vor dem Befüllen der Wells mit Zellen (60.000 Zellen/Well) wurde die Unterseite der Wells der oberen Kammer der CIM-Platte 16 mit 30 µl Collagen I ([…], Sigma, Deisenhofen, Deutschland) beschichtet. Jede Behandlungsbedingung wurde in dreifacher Ausführung gemessen.
Neben der zellulären Vitalität und Progression sowie dem Einfluss auf Apoptose und Zellzyklus hat die Anmelderin auch den Einfluss von Cineol auf das zelluläre Migrationsverhalten untersucht. […]

[3] = system: GSK-3; test: Immunohistochemistry, subcellular (endolysosomal) localisation of GSK-3; type: cell-based, Mensch; conditions: 100 µM, versus control medium (Figur 4B)
Description: Frische eingefrorene Gewebeschnitte wurden für 10 Minuten in 100 % Methanol fixiert. Nach einer Trocknungszeit von 10 Minuten wurden die Schnitte bei Raumtemperatur mit TBS (RT-TBS) gewaschen. Danach wurden die Gewebeproben zur Inhibition der endogenen Peroxidase 15 Minuten lang in RT-TBS mit 3 % H2O2 inkubiert.
Nach einem Waschschritt mit RT-TBS wurden die Proben in TBS mit 0,3 % Triton X für 15 Minuten permeabilisiert. Die Schnitte wurden in einer 1 : 100-Verdünnung mit Anti-Phospho-GSK-3-alpha/beta-Antikörpern (Cell Signaling Technology Inc., Massachusetts, USA, Katalognummern 5676 und 9331) über Nacht bei 4 °C inkubiert.
Am nächsten Tag wurden die Objektträger mit RT-TBS gewaschen und danach für 20 Minuten bei Raumtemperatur mit einem sekundären Polylink-Antikörper inkubiert. Nach dem Waschen mit RT-TBS wurden die Proben mit Peroxidase-Marker (HRP) (beide DCS Detection line, Innovative Diagnostik-Systeme, Hamburg, Deutschland) inkubiert.
Nach dem Waschen mit RT-PBS wurden die Schnitte in AEC (DCS Chromoline, Innovative Diagnostik-Systeme, Hamburg, Deutschland) inkubiert. Die Reaktion wurde mit RT-TBS gestoppt. Schließlich wurde eine Zellkernfärbung mit Mayer's Haematoxylin durchgeführt. Die Schnitte wurden in wässrigem "Dako Faramount Medium" (Dako North America Inc., Carpinteria, CA, USA) eingebettet. […]

CC12CCC(CC1)C(C)(C)O2 [1,8-Cineol, 1,3,3-Trimethyl-2-oxabicyclo[2.2.2]octan]
Zellvitalität [1]: massiven Abfall | zelluläre Migrationsaktivität [2]: leichten Einfluss | endolysosomale Lokalisierung von GSK-3 [3]: verringerte endolysosomale Lokalisierung

— EP3325012B1, “CINEOLE-CONTAINING COMPOSITION FOR TREATING NOSE POLYPS” (Maria Clementine Martin Klosterfrau Vertriebsgesellschaft …, priority 2015, dated 2017)
